From patent US11999716B2, “WDR5 inhibitors and modulators” (priority 2018, dated 2024)
Read-outs that look alike come from different tables or passages of the source.

Legend:
WDR5 = WDR5 (Homo sapiens, UniProt P61964); experiment: biochemical; type: binding
[1] = system: MV4:11 human cancer cell lines; experiment: Cellular viability / anti-proliferative activity, CellTiter-Glo, 5 day protocol; type: cell-based; settings: Homo sapiens, MV4-11, 120 h, read-out: GI50 on cellular proliferation of MV4:11 human cancer cell lines
Summary of the method: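 Compounds were tested over 22 two-fold dilutions starting at 30 μM in 0.3% DMSO, with 200 cells per well (7200 cells/mL). Viability was measured by CellTiter-Glo luminescence at day 5.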

[2] = […], 10mer-Thr-FAM probe 150 nM, Tb-anti-HIS 1 nM, 60 min, room temperature, read-out: Ki for Inhibition of WDR5 by TR-FRET assay
[3] = MV4:11 cells, 5 day incubation, CellTiter-Glo, mean of minimum two replicates

Compound	GI50 [1, 3] [nM]	also measured
COc1cc(CN2CCc3c(cc(Cn4ccn(C)c4=N)cc3-c3ccc(F)cc3C)C2=O)cc(OC)c1 [Example 29, 2-(3,5-Dimethoxybenzyl)-5-(4-fluoro-2-methylphenyl)-7-((2-imino-3-methyl-2,3-dihydro-1H-imidazol-1-yl)methyl)-3,4-dihydroisoquinolin-1(2H)-one]		Ki (WDR5; [2]): < 0.05 nM; GI50 [1]: 63 nM
CCn1cc(-c2cc(Cn3ccsc3=N)cc3c2CCN(Cc2cc(C)nn2C)C3=O)c(C(F)(F)F)n1 [Example 106, 2-((1,3-Dimethyl-1H-pyrazol-5-yl)methyl)-5-(1-ethyl-3-(trifluoromethyl)-1H-pyrazol-4-yl)-7-((2-iminothiazol-3(2H)-yl)methyl)-3,4-dihydroisoquinolin-1(2H)-one]		Ki (WDR5; Ki for Inhibition of WDR5 by TR-FRET assay): < 0.05 nM; GI50 [1]: 182 nM
COc1cc(CN2CCc3c(cc(CN4CCCC4=N)cc3-c3cccnc3C(F)(F)F)C2=O)cc(OC)c1 [Example 107, 2-(3,5-Dimethoxybenzyl)-7-((2-iminopyrrolidin-1-yl)methyl)-5-(2-(trifluoromethyl)pyridin-3-yl)-3,4-dihydroisoquinolin-1(2H)-one]		Ki (WDR5; [2]): 0.11 nM
CCn1cc(-c2cc(Cn3ccnc3C)cc3c2CCN([C@@H](C)c2cncc(OC)c2)C3=O)c(C(F)(F)F)n1 [Example 243, (S)-5-(1-Ethyl-3-(trifluoromethyl)-1H-pyrazol-4-yl)-2-(1-(5-methoxypyridin-3-yl)ethyl)-7-((2-methyl-1H-imidazol-1-yl)methyl)-3,4-dihydroisoquinolin-1(2H)-one]	< 50	
CCn1cc(-c2cc(Cn3cnc(C)c3)cc3c2CCN([C@H](c2cc(OC)ccn2)C2CC2)C3=O)c(C(F)(F)F)n1 [Example 244, (S)-2-(cyclopropyl(4-methoxypyridin-2-yl)methyl)-5-(1-ethyl-3-(trifluoromethyl)-1H-pyrazol-4-yl)-7-((4-methyl-1H-imidazol-1-yl)methyl)-3,4-dihydroisoquinolin-1(2H)-one]	119	
CCn1cc(-c2cc(Cn3ccnc3)cc3c2CCN([C@H](c2cc(C)ccn2)C2CC2)C3=O)c(C(F)(F)F)n1 [Example 245, (S)-7-((1H-imidazol-1-yl)methyl)-2-(cyclopropyl(4-methylpyridin-2-yl)methyl)-5-(1-ethyl-3-(trifluoromethyl)-1H-pyrazol-4-yl)-3,4-dihydroisoquinolin-1(2H)-one]	< 50	
Cc1nccn1Cc1cc2c(c(-c3cn(C)nc3C(F)(F)F)c1)CCN(c1cnccc1-c1ccccc1)C2=O [Example 246, 7-((2-Methyl-1H-imidazol-1-yl)methyl)-5-(1-methyl-3-(trifluoromethyl)-1H-pyrazol-4-yl)-2-(4-phenylpyridin-3-yl)-3,4-dihydroisoquinolin-1(2H)-one]	1870	
COc1ccnc([C@H](C)N2CCc3c(cc(Cn4ccnc4C)cc3-c3ccncc3C(F)(F)F)C2=O)c1 [Example 248, (S)-2-(1-(4-Methoxypyridin-2-yl)ethyl)-7-((2-methyl-1H-imidazol-1-yl)methyl)-5-(3-(trifluoromethyl)pyridin-4-yl)-3,4-dihydroisoquinolin-1(2H)-one]	55	
COc1ccnc([C@H](C)N2CCc3c(cc(Cn4ccnc4C)cc3-c3cncnc3C(F)(F)F)C2=O)c1 [Example 249, (S)-2-(1-(4-Methoxypyridin-2-yl)ethyl)-7-((2-methyl-1H-imidazol-1-yl)methyl)-5-(4-(trifluoromethyl)pyrimidin-5-yl)-3,4-dihydroisoquinolin-1(2H)-one]	1970	
CCn1cc(-c2cc(Cc3cnc[nH]3)cc3c2CCN([C@@H](C)c2cc(OC)ccn2)C3=O)c(C(F)(F)F)n1 [Example 250, (S)-7-((1H-Imidazol-5-yl)methyl)-5-(1-ethyl-3-(trifluoromethyl)-1H-pyrazol-4-yl)-2-(1-(4-methoxypyridin-2-yl)ethyl)-3,4-dihydroisoquinolin-1(2H)-one]		GI50 [1]: < 50 nM
COc1ccnc([C@H](C2CC2)N2CCc3c(cc(Cn4ccnc4C)cc3-c3cn(C)nc3C(F)(F)F)C2=O)c1 [Example 251, (S)-2-(Cyclopropyl(4-methoxypyridin-2-yl)methyl)-7-((2-methyl-1H-imidazol-1-yl)methyl)-5-(1-methyl-3-(trifluoromethyl)-1H-pyrazol-4-yl)-3,4-dihydroisoquinolin-1(2H)-one]		GI50 [1]: < 50 nM
COc1ccnc([C@H](C2CC2)N2CCc3c(cc(Cn4ccnc4)cc3-c3cn(C)nc3C(F)(F)F)C2=O)c1 [Example 252, (S)-7-((1H-Imidazol-1-yl)methyl)-2-(cyclopropyl(4-methoxypyridin-2-yl)methyl)-5-(1-methyl-3-(trifluoromethyl)-1H-pyrazol-4-yl)-3,4-dihydroisoquinolin-1(2H)-one]	< 50	
Cc1nccn1Cc1cc2c(c(-c3cn(C)nc3C(F)(F)F)c1)CCN(c1ccc(F)cc1OCC1CC1)C2=O [Example 253, 2-(2-(Cyclopropylmethoxy)-4-fluorophenyl)-7-((2-methyl-1H-imidazol-1-yl)methyl)-5-(1-methyl-3-(trifluoromethyl)-1H-pyrazol-4-yl)-3,4-dihydroisoquinolin-1(2H)-one]	2090	
CCn1cc(-c2cc(Cc3nccn3C)cc3c2CCN([C@@H](C)c2cc(OC)ccn2)C3=O)c(C(F)(F)F)n1 [Example 254, (S)-5-(1-Ethyl-3-(trifluoromethyl)-1H-pyrazol-4-yl)-2-(1-(4-methoxypyridin-2-yl)ethyl)-7-((1-methyl-1H-imidazol-2-yl)methyl)-3,4-dihydroisoquinolin-1(2H)-one]	1340	
Cc1nccn1Cc1cc2c(c(-c3cn(C)nc3C(F)(F)F)c1)CCN(c1ccccc1OC(F)(F)F)C2=O [Example 255, 7-((2-Methyl-1H-imidazol-1-yl)methyl)-5-(1-methyl-3-(trifluoromethyl)-1H-pyrazol-4-yl)-2-(2-(trifluoromethoxy)phenyl)-3,4-dihydroisoquinolin-1(2H)-one]	2790	
Cc1nccn1Cc1cc2c(c(-c3cn(C)nc3C(F)(F)F)c1)CCN(c1ccccc1OC(C)C)C2=O [Example 256, 2-(2-Isopropoxyphenyl)-7-((2-methyl-1H-imidazol-1-yl)methyl)-5-(1-methyl-3-(trifluoromethyl)-1H-pyrazol-4-yl)-3,4-dihydroisoquinolin-1(2H)-one]	3860	
CCn1cc(-c2cc(Cc3cncn3C)cc3c2CCN([C@@H](C)c2cc(OC)ccn2)C3=O)c(C(F)(F)F)n1 [Example 257, (S)-5-(1-Ethyl-3-(trifluoromethyl)-1H-pyrazol-4-yl)-2-(1-(4-methoxypyridin-2-yl)ethyl)-7-((1-methyl-1H-imidazol-5-yl)methyl)-3,4-dihydroisoquinolin-1(2H)-one]		GI50 [1]: < 50 nM
